Test results from patent publication US10150734B2, “Solid forms of 2-(5-(3-fluorophenyl)-3-hydroxypicolinamido)acetic acid, compositions, and uses thereof” (Akebia Therapeutics, Inc., priority 2015, dated 2018).
≈ marks a conversion by molar mass, not a printed value. Entries after “also recorded” stand apart in the source; their conditions may differ. Read-outs that look alike come from different tables or passages of the source.

Assays:
[1] = Dynamic vapour sorption (moisture sorption) with XRPD of post-DVS material; format: physicochemical; settings: for XRPD analysis of the post-DVS material: after DVS and drying at 60 °C for 2 hours; for Hygroscopicity (in words): from DVS moisture sorption
Method: Dynamic vapour sorption experiment was carried out by first holding the sample at 40% RH and 25.0° C. until an equilibrium weight was reached or for a maximum of four hours. The sample was then subjected to an isothermal (at 25.0° C.) adsorption scan from 40 to 90% RH in steps of 10%. The sample was allowed to equilibrate to an asymptotic weight at each point for a maximum of four hours. Following adsorption, a desorption scan from […] to 5% RH (at 25.0° C.) was run in steps of 10% again allowing a maximum of four hours for equilibration to an asymptotic weight. An adsorption scan was then performed from 0 to 40% RH in steps of 10%. The sample was then dried for no less than two hours at 60.0° C. and the resulting solid analyzed by XRPD.

[2] = Single form slurry experiments of Forms A, D and G; format: physicochemical; settings: ambient temperature, all tested conditions
Method: Single form slurry experiments were conducted for Forms A, D and G in three solvents stems, water, 1:2 v/v IPAc/heptane, and toluene to evaluate their physical form stability as a single polymorph (Table 14). Form A remained unchanged at six day time point. […] Form D remained unchanged for three days in water but converted to a mixture A and D at six days. In 1:2 IPAc/heptane and toluene, Form D converted to a mixture of A and D at three days and then Form A at six days. […] Form D is also a metastable polymorph but its conversion to Form A is kinetically slower than Form G. The conversion was the slowest in water partly due to low solubility.
Approximately 10-20 mg of Forms A, D and G were weighed into 8 mL clear vials equipped with magnetic stir bars (Table 14). Water, IPAc/Heptane (1:2 V/V) and toluene were used as the solvent systems for these competitive slurry experiments. Three selected solvents, 1.0 mL, were added to achieve free-flowing slurry and allowed to equilibrate at room temperature. All slurries will be isolated via centrifuge filtration after three day and six days of equilibration.

[3] = Thermal stability experiments (solid stored at 60 °C; XRPD and HPLC); settings: for XRPD, aliquot time point Day 1 / XRPD, aliquot time point Day 7: solid stored at 60.0 °C
[4] = Aqueous solubility (slurry in deionized water at room temperature, filtrate by HPLC, solids by XRPD); settings: for Solubility: equilibrated with stirring, filtrate by HPLC
Method: Approximately 14-25 mg of Forms A, D and G were transferred to 20 mL vials equipped with magnetic stir bars. 1.0 mL of deionized water was added and the resulting free flowing slurry was allowed to equilibrate over 1 and 7 days period with stirring at room temperature. […] The filtrates were analyzed by HPLC to determine solubility.

[5] = Competitive slurry of calcium, potassium and sodium salts in acetone; format: physicochemical
Method: Calcium, sodium, and potassium salts were used to setup different competitive slurry experiments. For competitive slurry of calcium salts (˜5-6 mg of Salt I and Salt II) were weighed into a 5.0 mL clear vial equipped with magnetic stir bars. These steps were repeated for potassium salt material (˜5-6.5 mg of Salt III) and sodium salt materials (˜2.6-6.4 mg of Salt IV and Salt V). […] All slurries, 400 μL, were filtered through 0.45 micron centrifuge filters after one and seven days of equilibration. The solids were analyzed by XRPD to check for salt conversion (Table 36).

Row | Moisture adsorbed at 60% RH ([1]; DVS, 25.0 °C, 60% RH) | Moisture Sorption 90% RH ([1]; DVS, 25.0 °C, 90% RH) | XRPD analysis of the post-DVS material [1] | XRPD, aliquot time point Day 1 [3] | XRPD, aliquot time point Day 7 [3] | Chemical stability / degradation by HPLC after storage at 60 °C for seven days (in words) ([3]; solid, 60 °C, seven days) | Moisture Sorption ([1]; 60% RH) | Moisture Sorption ([1]; 90% RH) | Structure (SMILES) | Hygroscopicity (in words) [1] | further results
1 | 0.4 wt % | 7.1 wt % | afforded Form A | form mixture; also recorded: A + G | only Form A | chemically stable | – | – | O=C(O)CNC(=O)c1ncc(-c2cccc(F)c2)cc1O [Form G, 2-(5-(3-fluorophenyl)-3-hydroxypicolinamido)acetic acid] | slightly hygroscopic; also recorded: moderately hygroscopic | Moisture Sorption 60% RH ([1]; DVS, 25.0 °C, 60% RH): 0.4%; Moisture Sorption 90% RH ([1]; DVS, 25.0 °C, 90% RH, listed as G): 7.1 wt %; Weight moisture uptake at 60% RH ([1]; DVS, 60% RH): about 0.4 % weight; Weight moisture uptake at 90% RH ([1]; DVS, 90% RH): about 7.1 % weight; Outcome in the single form and competitive slurry experiments (in words) [2]: converted to Form A; HPLC (% AUC) ([3]; after storage at 60.0 °C): >99.9 % AUC; Parent Material HPLC (% AUC) ([3]; before storage at 60.0 °C): >99.3 % AUC; Solubility ([4]; deionized water, water, thermodynamic from solid, Solubility, room temperature): 61 µg/mL (≈ 210 µM)
2 | 0.3 wt % | 0.7 wt % | consistent XRPD diffractogram | – | – | – | 60% RH: 0.3 wt % | 90% RH: 0.7 wt % | O=C([O-])CNC(=O)c1ncc(-c2cccc(F)c2)cc1O.[Na+] [Salt VI] | slightly hydroscopic; also recorded: slightly hygroscopic | hydration property [1]: anhydrate

Row | Structure (SMILES) | Moisture adsorbed at 60% RH ([1]; DVS, 25.0 °C, 60% RH) | Moisture Sorption 90% RH ([1]; DVS, 25.0 °C, 90% RH) | XRPD analysis of the post-DVS material [1] | XRPD, aliquot time point Day 1 [3] | XRPD, aliquot time point Day 7 [3] | Chemical stability / degradation by HPLC after storage at 60 °C for seven days (in words) ([3]; solid, 60 °C, seven days) | Moisture Sorption ([1]; 60% RH) | Moisture Sorption ([1]; 90% RH) | Hygroscopicity (in words) [1] | further results
3 | O=C([O-])CNC(=O)c1ncc(-c2cccc(F)c2)cc1O.O=C([O-])CNC(=O)c1ncc(-c2cccc(F)c2)cc1O.[Ca+2] [Salt I] | 1.0 wt % | 4.1 wt % | consistent XRPD pattern as the starting material | Salt I | Salt I | chemically stable | 60% RH: 1.0 wt % | 90% RH: 4.1 wt % | moderately hydroscopic; also recorded: moderately hygroscopic | hydration property ([1]; 60% RH): anhydrate (60%; hydration property ([1]; 90% RH): monohydrate; Moisture Sorption (hygroscopicity in words) ([1]; DVS, from uptake at 60% and 90% RH): (moderately; Outcome of competitive slurry of salts (in words) ([5]; acetone (50 μL water added for potassium and sodium salts), room temperature, one and seven days): most stable polymorphs; XRPD of solids, aliquot time point Day 1 ([5]; competitive slurry of calcium salts (Salt I + Salt II) in acetone 1.0 mL, RT, day 1): Salt I; XRPD of solids, aliquot time point Day 7 ([5]; competitive slurry of calcium salts (Salt I + Salt II) in acetone 1.0 mL, RT, day 7): Salt I; Physical form / XRPD pattern change after storage at 60 °C for seven days (in words) ([3]; solid, 60 °C, seven days): no change in physical form; Solubility ([4]; deionized water, room temperature): 10 µg/mL; Aqueous Solubility ([4]; deionized water, room temperature, standard curve linear range 0.008 to 0.2 mg/mL): 10 µg/mL; Aqueous Solubility: XRPD (1 day) of solids ([4]; solid form after 1 day slurry in water): Salt I + Extra
